Data taken from patent US20180188258A1, “MARKER FOR HETEROGENEITY OF CANCER TISSUE, AND USE THEREOF” (Keio University, priority 2015, published 2018).

Test system: cancer tissue of the Mix mouse (MDA-MB-231 + HCC1937 cells) and of the 231 mouse (MDA-MB-231 cells)
Experiment: Study on therapeutic effects by anticancer drug in tumor-bearing mice (tumor volume over time)
Format: in vivo
Settings: Paclitaxel 3 mg/kg intraperitoneally once a week; Mix mouse compared with 231 mouse; BALB/c-nu; control physiological saline
Excerpt: The MDA-MB-231 cell line and the HCC1937 cell line were mixed so that the cell number of the HCC1937 cell line was larger than the cell number of the MDA-MB-231 cell line, preferably the cell number of HCC1937 cell line:cell number of MDA-231 cell line was a ratio of 2:1 or more, for example, 9:1. Then, the cell mixture was transplanted into the fourth mammary gland adipose tissue of an immunodeficient mouse (4 weeks old, female, BALB/c-nu) to thereby construct a tumor-bearing mouse (hereinafter, sometimes referred to as “Mix mouse”). Only the MDA-MB-231 cell line and only the HCC1937 cell line were respectively transplanted into the fourth mammary gland adipose tissue of an immunodeficient mouse (4 weeks old, female, BALB/c-nu) to thereby construct tumor-bearing mice (hereinafter, sometimes referred to as “231 mouse” and “1937 mouse”, respectively) as controls.
Paclitaxel (3 mg/kg) was administered intraperitoneally once a week to Mix mouse and 231 mouse constructed in the same manner as in Experimental Example 2, the tumor diameter was measured with time, and temporal changes in tumor volume were observed (n=5 in each case). As controls, temporal changes in tumor volume were also observed for the groups (control groups) in which physiological saline was administered intraperitoneally in place of paclitaxel (n=5 in each case). […]

CC(=O)O[C@H]1C(=O)[C@@]2(C)[C@H]([C@H](OC(=O)c3ccccc3)[C@]3(O)C[C@H](OC(=O)[C@H](O)[C@@H](NC(=O)c4ccccc4)c4ccccc4)C(C)=C1C3(C)C)[C@]1(OC(C)=O)CO[C@@H]1C[C@@H]2O [Paclitaxel] was tested, and the “temporal changes in tumor volume (resistance of the cancer tissue to paclitaxel)” value was “the cancer tissue of the Mix mouse has higher resistance to paclitaxel than the cancer tissue of the 231 mouse”.
